From US5221752A, “α-keto amide derivatives” (Nippon Kayaku Kabushiki Kaisha, priority 1990, dated 1993)
*1 amine or outer side, *2 acyl side, *3 side chain or, on linkers, in order; H or OH if unused. Where a SMILES comes first, the peptide text is derived from it. [ ]: non-standard residue; d: D form. The star is where a group is joined. ξ: configuration not given here. X1 = O=C(C(=O)[*:2])C1CCCN1[*:1]; Cbz = O=C(OCc1ccccc1)*; ξV = CC(C)C(N)C(=O)O; OBn = c1ccc(CO*)cc1

target: T1, prolyl endopeptidase (Sus scrofa, UniProt P23687); experiment: Enzyme inhibiting activity (prolyl endopeptidase; substrate benzyloxycarbonylglycylproline β-naphthylamide); assay type: biochemical, porcine; details: not given
T1 construct: prolyl endopeptidase obtained from porcine kidneys used as the enzyme; from tissue; host or cells: porcine kidneys
T1 sequence (P23687 whole entry): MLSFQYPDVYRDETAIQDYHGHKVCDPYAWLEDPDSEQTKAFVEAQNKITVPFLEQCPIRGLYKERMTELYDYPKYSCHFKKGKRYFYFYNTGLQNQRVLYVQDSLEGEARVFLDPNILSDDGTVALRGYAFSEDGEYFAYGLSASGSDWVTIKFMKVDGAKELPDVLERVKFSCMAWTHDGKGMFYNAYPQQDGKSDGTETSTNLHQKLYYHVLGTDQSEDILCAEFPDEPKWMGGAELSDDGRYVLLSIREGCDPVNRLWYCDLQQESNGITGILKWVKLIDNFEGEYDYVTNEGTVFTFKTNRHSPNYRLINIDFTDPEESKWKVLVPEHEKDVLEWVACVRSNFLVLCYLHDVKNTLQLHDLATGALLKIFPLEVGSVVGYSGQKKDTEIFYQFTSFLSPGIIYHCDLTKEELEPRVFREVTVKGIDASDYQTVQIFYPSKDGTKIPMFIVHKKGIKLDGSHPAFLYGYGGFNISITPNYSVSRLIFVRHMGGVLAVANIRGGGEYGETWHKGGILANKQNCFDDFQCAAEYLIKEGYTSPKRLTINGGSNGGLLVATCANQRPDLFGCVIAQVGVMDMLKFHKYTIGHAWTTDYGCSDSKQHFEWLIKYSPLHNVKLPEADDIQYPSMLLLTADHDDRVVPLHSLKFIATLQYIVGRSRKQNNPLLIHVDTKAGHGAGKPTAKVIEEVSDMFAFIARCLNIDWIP
Procedure: Experiments were conducted to evaluate the enzyme inhibiting activity of the compounds of the present invention by using prolyl endopeptidase as the enzyme model. They are given in the following Test Examples.
Method of Assaying Enzyme Inhibiting Activity
Benzyloxycarbonylglycylproline β-naphthylamide (0.1 mM) used as the substrate was reacted with prolyl endopeptidase obtained from porcine kidneys used as the enzyme in a 0.025 M tris(hydroxymethyl)methanamine hydrochloric acid solution (pH: 7.5) at 37° C. reaction mixture for 30 min and then the absorbance of the product at 525 nm was measured.

In order of rising IC50:
1. CC(C)(C)OC(=O)CNC(=O)C(=O)C1CCCN1C(=O)C(Cc1ccccc1)NC(=O)OCc1ccccc1 (stereo not drawn) [Example 21, N-Benzyloxycarbonylphenylalanyl-[2-oxo-2-(pyrrolidin-2-yl)acetyl]-glycine t-butyl ester]  1.49 nM
2. O=C(O)CNC(=O)C(=O)C1CCCN1C(=O)C(Cc1ccccc1)NC(=O)OCc1ccccc1 (stereo not drawn) [Example 22, N-Benzyloxycarbonylphenylalanyl-[2-oxo-2-(pyrrolidin-2-yl)acetyl]-glycine]  2.28 nM
3. CC(C)C[C@@H](NC(=O)C(=O)C1CCCN1C(=O)C(Cc1ccccc1)NC(=O)OCc1ccccc1)C(=O)NC(C)(C)C (stereo partly drawn) [Example 19, N-Benzyloxycarbonylphenylalanyl-[2-oxo-2-(pyrrolidin-2-yl)acetyl]-D-leucinet-butylamide]  2.36 nM
4. CC(C)C[C@@H](NC(=O)C(=O)C1CCCN1C(=O)C(Cc1ccccc1)NC(=O)OCc1ccccc1)C(=O)O (stereo partly drawn) [Example 17, N-Benzyloxycarbonylphenylalanyl-[2-oxo-2-(pyrrolidin-2-yl)acetyl)-D-leucine]  2.42 nM
5. CC(C)CC(NC(=O)C(=O)C1CCCN1C(=O)C(Cc1ccccc1)NC(=O)OCc1ccccc1)C(=O)OC(C)(C)C (stereo not drawn) [Example 23, N-benzyloxycarbonylphenylalanyl-[2-oxo-2-(pyrrolidin-2-yl)acetyl]-leucine t-butyl ester]  3.03 nM
6. CC(C)C[C@@H](NC(=O)C(=O)C1CCCN1C(=O)C1CCCN1C(=O)OCc1ccccc1)C(=O)NC(C(=O)OCc1ccccc1)C(C)C (stereo partly drawn) [Example 20, N-Benzyloxycarbonylprolyl-[2-oxo-2-(pyrrolidin-2-yl)acetyl]-D-leucylvaline benzyl ester]  3.25 nM
7. CC(C)C[C@@H](NC(=O)C(=O)C1CCCN1C(=O)C(Cc1ccccc1)NC(=O)OCc1ccccc1)C(=O)OC(C)(C)C (stereo partly drawn) [Example 16, N-Benzyloxycarbonylphenylalanyl-[2-oxo-2-(pyrrolidin-2-yl)acetyl]-D-leucin t-butyl ester]  3.37 nM
8. CC(C)C[C@@H](NC(=O)C(=O)C1CCCN1C(=O)C(NC(=O)C(NC(=O)OCc1ccccc1)C(C)C)C(C)C)C(=O)NC(C(=O)OCc1ccccc1)C(C)C (stereo partly drawn) [Example 7, N-Benzyloxycarbonylvalylvalyl-[2-oxo-2-(pyrrolidin-2-yl)acetyl]-D-leucylvaline benzyl ester] (Cbz-[ξV][ξV][X1][dL][ξV]-OBn)  9 nM
9. CC(C)C[C@@H](NC(=O)C(=O)C1CCCN1C(=O)C(NC(=O)C(N)C(C)C)C(C)C)C(=O)NC(C(=O)O)C(C)C (stereo partly drawn) [Example 8, Valylvalyl-[2 oxo 2-(pyrrolidin-2-yl)acetyl]-D-leucylvaline] (H-[ξV][ξV][X1][dL][ξV]-OH)  19.9 nM
10. CC(C)C[C@@H](NC(=O)C(=O)C1CCCN1C(=O)CC(C)(C)C)C(=O)OC(C)(C)C (stereo partly drawn) [Example 14, [2-Oxo-2-(N-(3,3-dimethylbutanoyl)pyrrolidin-2-yl)-acetyl]-D-leucine t-butyl ester]  21.9 nM
11. CC(C)C[C@@H](NC(=O)C(=O)C1CCCN1C(=O)OCc1ccccc1)C(=O)OC(C)(C)C (stereo partly drawn) [Example 15, [2-Oxo-2-(N-benzyloxycarbonylpyrrolidin-2-yl)acetyl]-D-leucine t-butyl ester]  103 nM

same assay, conditions: prolyl endopeptidase from porcine kidneys; substrate 0.1 mM; pH 7.5; 37° C.; 30 min; absorbance 525 nm

For “N-Benzyloxycarbonylphenylalanyl-[2 hydroxy-2-(pyrrolidin-2-yl)acetyl]-D-leucylvaline benzyl ester [Example 9]”, the “IC50 (concentration necessary for 50% inhibition)” value was 2.4 ng/mL.
